Measured values from US12365699B2, “Elastase inhibitor prodrug and use thereof” (SUZHOU ARK BIOPHARMACEUTICAL CO., LTD., priority 2020, dated 2025).

Assays:
[1] = In vivo pharmacokinetics in mice, pulmonary drug concentration after intratracheal administration; design: species or system male C57BL/6 mice; conditions: intratracheal 2 mg/kg
From the text: Compare the pharmacokinetics of the final prodrug compound of Example 1 and the control example (compound 52 in WO 2018/175173 A1) in mice:
7-9-week-old male C57BL/6 mice were randomly divided into two groups after the adaptation phase: the elastase inhibitor control group and the Example 1 group.

[2] = Stability test of prodrug in simulated lung fluids (Gamble's buffer, ALF buffer) at 37° C., HPLC ratio of prodrug and hydrolyzate; type: physicochemical; conditions: for ratio of the hydrolysis: within half an hour, ratio maintained for the next 20 hours; for hydrolysis: linear hydrolysis
Description: (§1) Two simulated lung fluids including Gamble's buffer and ALF buffer were prepared according to literature reports (Marques M. R. C., Loebenberg R., Almukainzi M., Simulated Biological Fluids with Possible Application in Dissolution Testing, Dissolution Technologies, 2011, 18(3): 15-28) to test the prodrug stability in simulated lung fluids. In addition, according to the need for animal experimental preparations and sample analysis, three different solvents were prepared: vehicle for animal experiments (water with 5% ethanol), anhydrous ethanol and acetonitrile. They were used to test the stability of pre-dose formulations in animals and collected samples during analysis. Dissolve example 1 compound (2 mg) and example 2 compound (2 mg) in 1 mL of the above-filtered buffer or solvent, respectively. Observe whether there is undissolved particulate matter after vortex shaking, and then filter the suspension or solution to remove undissolved compounds and immediately take 100 μL as the sample at the start of the stability test. Then the ratio of prodrug and hydrolyzate (namely compound 52 in WO 2018/175173 A1, used as a control) was analyzed by HPLC. Afterwards the samples in the two simulated lung fluids were placed on an orbital shaker at 37° C. and shaken at 200 rpm, and sampling at 0.5 hours, 1 hour, 2 hours, 4 hours and 20 hours, and the ratio of prodrug and hydrolyzate were analyzed by HPLC immediately. Let the samples dissolved in the three solvents stand at room temperature, sampling at 1 hour, 3 hours, and 18 hours, and the ratio of prodrug and hydrolyzate were immediately detected.

[3] = Stability test of prodrug in different solvents (vehicle water with 5% ethanol, anhydrous ethanol, acetonitrile) at room temperature; type: physicochemical
Description: as §1

[4] = male, C57BL/6, mouse, lung, other: intratracheal, parent compound dosed, read-out: drug concentration in the lungs

| Structure (SMILES) | drug concentration in the lungs ([1]; parent compound dosed, at 12 hours) | concentration at 6 h [1, 4] | ratio of the hydrolysis ([2]; acidic ALF buffer (pH 4.5)) | ratio of the hydrolysis ([2]; neutral Gamble's buffer (pH 7.4)) | hydrolysis in acetonitrile ([3]; up to 18 hours) | hydrolysis in anhydrous ethanol ([3]; anhydrous ethanol, up to 18 hours) | hydrolyzed in the resolvent ([3]; resolvent, after 18 hours) | hydrolyzed in the resolvent ([3]; resolvent, in 3 hours) | conversion of prodrug in mice [1] | effect on lung concentration and residence time of the control example compared to direct administration of the control example [1] | concentration at 12 h ([1]; male, C57BL/6, mouse, lung, other: intratracheal, parent compound dosed, at 12 hours, read-out: drug concentration in the lungs) | hydrolysis ([2]; acidic ALF buffer (pH 4.5), in about 15 hours) | hydrolysis ([2]; neutral Gamble's buffer (pH 7.4), at 2.5 hours) | hydrolysis rate ([3]; anhydrous ethanol) | hydrolysis rate ([3]; resolvent) |
| --- | --- | --- | --- | --- | --- | --- | --- | --- | --- | --- | --- | --- | --- | --- | --- |
| CC(C)[C@H](NC(=O)[C@@H]1CCCN1C(=O)[C@@H](NC(=O)c1ccc(C(=O)NCC(=O)O)cc1)C(C)C)B(O)O [control example, N-(4-(((S)-1-((S)-2-(((R)-1-borono-2-methylpropyl)carbamoyl)pyrrolidin-1-yl)-3-methyl-1-oxobutan-2-yl)carbamoyl)benzoyl)glycine, reference compound] | completely cleared | 153 ng/g | – | – | – | – | – | – | – | – | – | – | – | – | – |
| CC(C)[C@H](NC(=O)[C@@H]1CCCN1C(=O)[C@@H](NC(=O)c1ccc(C(=O)NCC(=O)O)cc1)C(C)C)B1O[C@@H]2C[C@@H]3C[C@@H](C3(C)C)[C@]2(C)O1 [Example 1, N-(4-(((S)-3-methyl-1-((S)-2-(((R)-2-methyl-1-((3aS,4S,6S,7aR)-3a,5,5-trimethylhexahydro-4,6-methanobenzo[d][1,3,2]dioxaborol-2-yl)propyl)carbamoyl)pyrrolidin-1-yl)-1-oxobutan-2-yl)carbamoyl)benzoyl)glycine] | – | 1070 ng/g | 40% | 25% | hardly hydrolyzed | hardly hydrolyzed | about 20% | about 18% | quickly converted into the control example | greatly increases the concentration and residence time of the control example in the lungs | 120 ng/g | – | – | – | – |
| CC(C)[C@H](NC(=O)c1ccc(C(=O)NCC(=O)O)cc1)C(=O)N1CCC[C@H]1C(=O)N[C@@H](C(C)C)[B-]12OC(=O)C[N+]1(C)CC(=O)O2 (stereo partly drawn) [Example 2, N-(4-(((S)-3-methyl-1-((S)-2-(((R)-2-methyl-1-(6-methyl-4,8-dioxo-1,3,6,2-dioxazaborocan-2-yl)propyl)carbamoyl)pyrrolidin-1-yl)-1-oxobutan-2-yl)carbamoyl)benzoyl)glycine] | – | – | – | – | did not hydrolyze | – | – | – | – | – | – | about 50% | about 50% | about 0.5 % per hour | about 1 % hydrolysis per hour |
